Assay results from patent US11919860B1 (priority 2023, dated 2024).

Legend:
[1] = test system: MDR strain of Mycobacterium tuberculosis; experiment: Anti-tubercular activity, colorimetric Resazurin Microplate Assay (REMA); type: cell-based; conditions: 192 h, read-out: Anti-tubercular activity against Mycobacterium tuberculosis MDR (MIC)
[2] = test system: XDR strain of Mycobacterium tuberculosis; experiment: as above; type: cell-based; conditions: 192 h, read-out: Anti-tubercular activity against Mycobacterium tuberculosis XDR (MIC)

Row | SMILES | MIC [1] | MIC [2]
1 | CC(C)OC(=O)c1cc[n+](CC(=O)c2ccccc2)cc1.[Br-] [Compound 4a, 4-(Isopropoxycarbonyl)-1-(2-oxo-2-phenylethyl)pyridin-1-ium Bromide] | 2 µg/mL | 2 µg/mL
2 | CC(C)OC(=O)c1cc[n+](CC(=O)c2ccc(F)cc2)cc1.[Br-] [Compound 4b, 1-(2-(4-Fluorophenyl)-2-oxoethyl)-4-(isopropoxycarbonyl)pyridin-1-ium bromide] | 1 µg/mL | 16 µg/mL
